Experiment [1] deals with THP-1 Lucia ISG cells (interferon pathway). The experiment in a line: Potency test of purified dimers on THP-1 Lucia ISG reporter cells. The settings on record: for Raw readings: replicates 1-3; for fold induction at 0.000508053 µM: Concentration 0.508053 nM; for fold induction at 0.00152416 µM: Concentration 1.52416 nM; for fold induction at 0.00457247 µM: Concentration 4.57247 nM; for fold induction at 0.0137174 µM: Concentration 13.7174 nM; for fold induction at 0.0411523 µM: Concentration 41.1523 nM; for fold induction at 0.123457 µM: Concentration 123.457 nM; for fold induction at 0.37037 µM: Concentration 370.37 nM; for fold induction at 1.11111 µM: Concentration 1111.11 nM; for fold induction at 10 µM: Concentration 10000 nM; for EC50: three biological replicates, mean ± s.d., read-out: EC50 THP-1. It counts as cell-based, human. As for the experimental part:
Cells were pelleted (150g, 10 min) and resuspended in the growth medium (40% conditioned) at a density of 1 × 10^6 cells ml^−1. The cell suspension was dispensed (50 µl each well) into a lidded white 96-well plate (BrandTech 781665). Test compounds or DMSO control were diluted in the growth medium and sterilized by filtering through 0.22-µm polyethersulfone (PES) membranes (Merck SLGP033RS). […] Upon cooling down to room temperature, 50 µl of reconstituted luciferase substrate (InvivoGen QUANTI-Luc) was added to each well via the injector of the plate reader (Molecular Devices SpectraMax i3x), and the luminescence output was recorded (4 s delay, 0.1 s integration). Raw signals were divided by the averaged signal of the DMSO-treated control wells and reported in relative luminescence unit (RLU). The dose–response curve of each replicate was fitted individually using the standard 4PL model (GraphPad Prism). The EC50 value of each compound was averaged from three independent experiments and reported as mean ± s.e.m.

Experiment [2] deals with T1, wild-type human STING LBD (hSTINGwt 138-379) (Homo sapiens, UniProt Q86WV6, H232R).
T1 construct: SUMO (N, cleaved yes); made in house; host or cells: Escherichia coli BL21 (DE3)
T1 sequence (Q86WV6 138-379 H232R): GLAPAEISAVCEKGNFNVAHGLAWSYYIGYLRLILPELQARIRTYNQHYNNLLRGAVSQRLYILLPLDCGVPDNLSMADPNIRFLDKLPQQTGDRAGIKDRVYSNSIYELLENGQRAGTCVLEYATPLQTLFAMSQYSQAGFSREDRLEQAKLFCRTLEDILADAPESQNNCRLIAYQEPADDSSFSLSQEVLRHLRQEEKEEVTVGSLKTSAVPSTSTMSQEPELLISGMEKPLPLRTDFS
Nature of the experiment: Isothermal titration calorimetry (ITC), reverse titration. It counts as binding. As for the experimental part: Escherichia coli BL21 (DE3) (Thermo Scientific EC0114) was transformed with a pET28a plasmid (Genscript) harbouring the codon-optimized sequence of SUMO-hSTINGwt (aa138-379). Transformed BL21 cells were inoculated into LB medium (50 µg ml^−1 kanamycin) and incubated at 180 rpm, 37 °C overnight. The overnight culture was then diluted (1:100 dilution) in 2× YT medium (50 µg ml^−1 kanamycin) and incubated at 180 rpm, 37 °C until optical density at 600 nm (OD600) reached 0.6 (approximately 3 h). The bacterial culture was then cooled to 16 °C, induced with 0.5 mM isopropyl 1-thio-D-galactopyranoside and incubated overnight at 180 rpm, 16 °C. The bacterial cells were pelleted at 4,000g for 30 min, resuspended in 20 ml of lysis buffer (25 mM HEPES pH 7.5, 150 mM NaCl, 20 mM imidazole and 2 mM TCEP supplied with 2 tablets of cOmplete mini EDTA-free protease inhibitors) and disrupted by sonication on ice. The total lysate was clarified by centrifugation at 22,000g for 30 min. The supernatant was collected and filtered through a 0.45-µm filter (Millipore SLHAR33SS). The clarified lysate was then incubated on a roller with 10 ml bed volume of Ni-NTA resin (Thermo Scientific 88223) at 4 °C for 1 h. The Ni-NTA resin was then packed in a column, flushed with 20 ml of wash buffer (25 mM HEPES pH 7.5, 150 mM NaCl and 20 mM imidazole) and eluted with 40 ml of elution buffer (25 mM HEPES pH 8.0, 150 mM NaCl and 250 mM imidazole). The eluted protein was concentrated to approximately 5 ml (Millipore Amicon 10 kDa molecular weight cut-off (MWCO)) and buffer-exchanged into storage buffer (25 mM HEPES pH 7.5 and 150 mM NaCl). TCEP was then added to a final concentration of 2 mM, and 250 units of SUMO protease (Merck SAE0067) were added. The cleavage reaction mixture was left to stand at 4 °C overnight until LC–MS analysis indicated the completion of the cleavage reaction. The cleavage mixture was incubated with 10 ml bed volume of Ni-NTA resin on a roller at 4 °C for 1 h and packed in a disposable column. The flowthrough was collected, and the resin was further flushed with 20 ml of wash buffer. The eluted fractions were combined, concentrated and further purified by size-exclusion chromatography (Cytiva, Superdex 200 Increase 10/300 GL). The purified protein in storage buffer was concentrated to 330 µM (dimer concentration) as determined by bicinchoninic acid (BCA) assay, aliquoted, flash-frozen in liquid nitrogen and stored at −80 °C for future use.
The binding constants of purified dimers were measured by ITC (Malvern Panalytical AutoITC200) in a reverse-titration format. Stock DMSO solutions of each dimer were dissolved in titration buffer (25 mM HEPES pH 7.5 and 150 mM NaCl) to a final concentration of 25 µM and added to the titration cell. The syringe was filled with 250 µM of purified STING in a matching buffer. Titration was performed at 25 °C with the following parameters: 750 rpm stirring, 0.2 µl initial injection followed by 2-µl injections of the […] every 120 s. Titration of STING protein into blank buffer was separately performed and subtracted from the raw data before the analysis. The background-subtracted titration curves were fitted with the built-in Origin software using the standard one-site model.
Extended Data Fig. 2 Isothermal titration calorimetry (ITC) data for binding constant measurements. Purified hSTINGwt138-379 (250 μM of homodimer) was titrated into each dimer (25 μM) dissolved in a matching buffer (25 mM HEPES pH 7.5, 150 mM NaCl) at 25 °C and 750 rpm stirring. Binding constants were reported as the average from duplicate measurements.
For orientation: ITC needs no label: the signal is the heat of the interaction.

[3] abbreviates: Homo sapiens, THP1-Lucia ISG, 24 h, three replicates, read-out: Processed reporter response per replicate (reading relative to DMSO).
Setting [4] is: Homo sapiens, THP1-Lucia ISG, 24 h.

3 compounds from article PMC12669040, “Tumour-specific STING agonist synthesis via a two-component prodrug system” (Nature Chemistry, 2025) can be followed below.

Where “and” joins values, the source holds several entries; their conditions need not be identical. Identical values can stand only once. Like-named read-outs stand apart in the source and are kept apart here. Bounds are passed on as bounds.

With `COc1cc2sc(C(=O)CCC(=O)O)cc2cc1Sc1cc2cc(C(=O)CCC(=O)O)sc2cc1OC` [Compound D1], the Raw readings in experiment [1] (Conc 0.508053 nM) was 1353 RLU and 1053 RLU and 1124 RLU; in experiment [1] (Conc 1.52416 nM), 759 RLU and 868 RLU and 713 RLU; in experiment [1] (Conc 4.57247 nM), 1002 RLU and 721 RLU and 729 RLU; in experiment [1] (Conc 13.7174 nM), 1412 RLU and 851 RLU and 1233 RLU; in experiment [1] (Conc 41.1523 nM) it was 3959 RLU and 4405 RLU and 4421 RLU; in experiment [1] (Conc 123.457 nM) it was 44787 RLU and 77696 RLU and 48848 RLU. Besides, the Raw readings in experiment [1] (Conc 370.37 nM) is 107911 RLU and 161465 RLU and 94323 RLU; in experiment [1] (Conc 1111.11 nM) it was 125522 RLU and 220455 RLU and 140381 RLU; in experiment [1] (Conc 3333.33 nM), 142408 RLU and 266422 RLU and 170286 RLU; in experiment [1] (Conc 10000 nM), 176790 RLU and 287573 RLU and 159056 RLU. Besides, the fold induction at 0.000508053 µM in experiment [1] (setting [3]) was found to be 1.85. Also, the fold induction at 0.00152416 µM in experiment [1] (setting [3]) came out at 1.04. In experiment [1] (setting [3]), the fold induction at 0.00457247 µM was 1.37. Besides, the fold induction at 0.0137174 µM in experiment [1] (setting [3]) worked out at 1.93. Also, the fold induction at 0.0411523 µM in experiment [1] (setting [3]) is 5.41. Moreover, the fold induction at 0.123457 µM in experiment [1] (setting [3]) was found to be 61.3. For the same compound, in experiment [1] (setting [3]), the fold induction at 0.37037 µM came to 148. Also, the fold induction at 1.11111 µM in experiment [1] (setting [3]) is 172. Besides, the fold induction at 3.33333 µM in experiment [1] (Homo sapiens, THP1-Lucia ISG, 24 h, Concentration 3333.33 nM, three replicates, read-out: Processed reporter response per replicate (reading relative to DMSO)) turned out to be 195. In addition, the fold induction at 10 µM in experiment [1] (setting [3]) is 242. In addition, the EC50 – broadly, the concentration giving half of the maximal effect – in experiment [1] (setting [4]) was determined as 291 ± 22 nM. Also, the Kd – broadly, the free concentration of one partner at which half of the binding sites on the other are occupied at equilibrium, for simple one-to-one binding – in experiment [2] (25 °C, average of duplicate measurements, read-out: Kd hSTINGwt (binding constant, ITC)) stood at 65 nM; in experiment [2] (ITC run _01, read-out: Kd), 80 nM; in experiment [2] (ITC run _02, read-out: Kd), 50 nM.

Turning to `COc1cc2sc(C(=O)CCC(=O)O)cc2cc1SCCCSc1cc2cc(C(=O)CCC(=O)O)sc2cc1OC` [Compound D6], the Raw readings in experiment [1] (Conc 0.508053 nM) is 775 RLU and 627 RLU and 744 RLU; in experiment [1] (Conc 1.52416 nM), 1043 RLU and 675 RLU and 1023 RLU; in experiment [1] (Conc 4.57247 nM) it was 1143 RLU and 972 RLU and 595 RLU; in experiment [1] (Conc 13.7174 nM), 992 RLU and 713 RLU and 1033 RLU; in experiment [1] (Conc 41.1523 nM) it was 501 RLU and 595 RLU and 1053 RLU; in experiment [1] (Conc 123.457 nM), 890 RLU and 1002 RLU and 706 RLU. In addition, the Raw readings in experiment [1] (Conc 370.37 nM) was 1023 RLU and 470 RLU; in experiment [1] (Conc 1111.11 nM) it was 689 RLU and 699 RLU and 1023 RLU; in experiment [1] (Conc 3333.33 nM), 595 RLU and 992 RLU and 806 RLU; in experiment [1] (Conc 10000 nM), 722 RLU and 829 RLU and 644 RLU. Also, the fold induction at 0.000508053 µM in experiment [1] (setting [3]) is 0.858. Also, the fold induction at 0.00152416 µM in experiment [1] (setting [3]) was 0.923. Besides, the fold induction at 0.00457247 µM in experiment [1] (setting [3]) was 1.33. Moreover, the fold induction at 0.0137174 µM in experiment [1] (setting [3]) was determined as 0.975. Moreover, in experiment [1] (setting [3]), the fold induction at 0.123457 µM amounted to 1.37. In addition, in experiment [1] (setting [3]), the fold induction at 1.11111 µM was found to be 0.956. Also, in experiment [1] (setting [3]), the fold induction at 10 µM is 1.13. Moreover, the EC50 in experiment [1] (setting [4]) was over 10000 nM.

In the case of `COc1cc2sc(C(=O)CCC(=O)O)cc2cc1CCCSc1cc2cc(C(=O)CCC(=O)O)sc2cc1OC` [Compound D4], the Raw readings is 972 RLU and 1002 RLU and 881 RLU in experiment [1] (Conc 0.508053 nM); 820 RLU and 522 RLU and 439 RLU in experiment [1] (Conc 1.52416 nM); 921 RLU and 829 RLU and 583 RLU in experiment [1] (Conc 4.57247 nM); 721 RLU and 644 RLU and 533 RLU in experiment [1] (Conc 13.7174 nM); 942 RLU and 783 RLU and 992 RLU in experiment [1] (Conc 41.1523 nM); 1083 RLU and 911 RLU and 1043 RLU in experiment [1] (Conc 123.457 nM). Moreover, the Raw readings in experiment [1] (Conc 370.37 nM) is 775 RLU and 737 RLU and 829 RLU; in experiment [1] (Conc 1111.11 nM), 962 RLU and 1173 RLU and 1233 RLU; in experiment [1] (Conc 3333.33 nM) it was 1143 RLU and 434 RLU and 1233 RLU; in experiment [1] (Conc 10000 nM), 8812 RLU and 7169 RLU and 7929 RLU. Further, in experiment [1] (setting [3]), the fold induction at 0.000508053 µM was 1.37. The fold induction at 0.00152416 µM in experiment [1] (setting [3]) was 0.714. Also, the fold induction at 0.00457247 µM in experiment [1] (setting [3]) stood at 1.13. Also, in experiment [1] (setting [3]), the fold induction at 0.0137174 µM is 0.881. Besides, the fold induction at 0.0411523 µM in experiment [1] (setting [3]) is 1.07. Also, in experiment [1] (setting [3]), the fold induction at 0.123457 µM amounted to 1.25. The fold induction at 0.37037 µM in experiment [1] (setting [3]) was 1.01. In addition, the fold induction at 1.11111 µM in experiment [1] (setting [3]) is 1.6. For the same compound, the fold induction at 10 µM in experiment [1] (setting [3]) amounted to 9.81. Moreover, the concentration for a half-maximal effect (EC50) in experiment [1] (setting [4]) is over 10000 nM.
